# From patent publication US10328056B2, “Priming of pancreatic tumor cells and cancer stem cells to TRAIL-induced apoptosis” (Alliance of Cardiovascular Researchers, priority 2014, dated 2019)
# What was measured:
# [1] = system: adipose tissue-derived stem cells (ASCs); test: Differentiation assay of ASCs; assay type: cell-based, human
# Procedure: Adipose tissue-derived stem cells were seeded in the following concentrations: adipogenic differentiation, 1×10^4 cells/cm^2; chondrogenic differentiation, 1.6×10^7 cells/cm2; and osteogenic differentiation, 5×10^3 cells/cm^2. After a 2-hour incubation with 20% FBS-containing medium, cells were washed, and the respective differentiation media were added (Invitrogen StemPro differentiation kits). Differentiation media were changed twice a week. After 14 to 21 days, cells were fixed with 4% formaldehyde for 30 minutes and stained with Oil Red O for lipid vesicles (adipogenic differentiation), Alcian Blue for proteoglycans (chondrogenic differentiation), and Alizarin Red S for calcium deposits (osteogenic differentiation) as reported previously. Bai X, Alt E. “Myocardial regeneration potential of adipose tissue-derived stem cells” Biochemical and Biophysical Research Communications. 401 (2010) 321-6.
# L3.6pl spheres = test: Acridine orange/ethidium bromide staining; assay type: cell-based; settings: 50 ng/mL, 24 hours
# Text: (§1) According to a protocol adapted from Todaro et al. (supra), attached cells or spheres were washed with PBS, stained with acridine orange/ethidium bromide, and visualized immediately with fluorescent microscopy.
# L3.6pl parental cells = test: Acridine orange/ethidium bromide staining; assay type: cell-based; settings: 50 ng/mL, 24 hours
# Text: as §1
# DcR1 = test: qRT-PCR of TRAIL decoy receptor; assay type: cell-based; settings: vs control samples
# Procedure: (§2) For total RNA extraction, cells were homogenized with TRIzol (Invitrogen). Phase separation was performed by the addition of chloroform and subsequent centrifugation steps. Aqueous phase of samples was collected, and RNA was precipitated by isopropyl alcohol. After washing, RNA was redissolved in DEPC-treated water, and RNA quality and quantity were measured with a Nanodrop ND-1000 Spectrophotometer (Thermo Scientific). For cDNA synthesis, the iScript Reverse Transcription Supermix (Bio-Rad) was used according to the manufacturer's protocol, and the reaction mix was incubated in a thermal cycler (Bio-Rad MyIQ Single-Color RT-PCR Detection System iCycler) with the following protocol: priming (5 minutes at 25° C.), reverse transcription (30 minutes at 42° C.), and reverse transcription inactivation (5 minutes at 85° C.). qRT-PCR was performed using iQ SYBR Green Supermix (Bio-Rad) according to the following protocol: initial denaturation and enzyme activation (1 cycle at 95° C. for 3 minutes), denaturing (40 cycles at 95° C. for 15 seconds) with annealing and extension (40 cycles at 55° C. for 30 seconds), and melting curve (1 cycle at 55° C.-95° C. in […] for 30 seconds). The Ct (cycle threshold) value was measured in absolute quantification (of cycles of amplification) and compared to β-actin, which served as a housekeeping gene.
# MiaPaCa2 tumors = test: Orthotopic MiaPaCa2 tumor model; assay type: in vivo, mice; settings: for #tumors at 6 wks: JNKi 1 mg/kg oral 5x/week, TRAIL 1 mg/kg i.p. 2x/week, gemcitabine 80 mg/kg 2x/week; for % tumor presence at 6 wks / Kidney mets / Liver mets / Peritoneal mets / Spleen mets: same regimens; for Kidney mets / Liver mets / Peritoneal mets / Spleen mets: at 6 wks
# Procedure: Age-matched male swiss nu/nu mice (6-8 weeks old) were injected orthotopically with pancreatic tumor cells. All procedures were performed in accordance with the guidelines of the Institutional Animal Care and Use Committee at The University of Texas MD Anderson Cancer Center (ACDF Protocol #12-12-12631). Animals were anesthetized with isoflurane anesthesia (1%-3% via inhalation), and an incision was made in the left abdominal flank. The spleen was located and extracted, and 1×10^6 pancreatic cells in 50 μL of PBS were injected into the underlying tail of the pancreas. The abdominal wall was closed with sterile absorbable sutures, and wound clips were applied to the skin. Animals were monitored daily and after two weeks of untreated tumor growth randomly assigned to different treatment groups: control (no treatment), JNKi (1 mg/kg) was administered by oral gavage five times per week; gemcitabine (80 mg/kg) or TRAIL (1 mg/kg) was injected intraperitoneally with a 27-G needle two times per week or JNKi and TRAIL together at the dosages indicated above. Weight, tumor growth, and health status were clinically followed for 4 weeks. At day 42, animals were euthanized, and blood and tissues were collected for postmortem analysis.
# [2] = system: CSC-enriched pancreatic cancer spheres; test: MTT viability assay, spheres versus parental cells; assay type: cell-based; settings: 25 ng/mL and 50 ng/mL
# Procedure: (§3) Cells were seeded in a 96-well plate at a density of 4000 to 5000 cells per well (70%-80% confluence) in triplicate. Non-adherent cells were washed with PBS, and different substrate dilutions were added. After 24 hours, 3-(4,5-dimethylthiazol-2-yl)-2,5-diphenyltetrazolium bromide (MTT) assay (Roche, Mannheim, Germany) was performed according to the manufacturer's instructions. Results were measured at 570 nm and background at 650 nm on a microplate reader (Molecular Devices).
# p-JNK = test: PathScan p-SAPK/JNK sandwich ELISA; assay type: cell-based; settings: L3.6plTR cells vs untreated control
# Procedure: Protein lysates were obtained from adherent cells or spheres after 1-hour of incubation with JNKi and/or TRAIL. Protein quantification was performed, and PathScan Sandwich ELISA Antibody Pair (Cell Signaling Technologies) was performed according to the manufacturer's instructions.
# [3] = system: TRAIL-resistant L3.6pl cells (L3.6plTR); test: Cell viability / cell death in TRAIL-resistant cells; assay type: cell-based
# Procedure: as §3
# [4] = system: parental pancreatic cancer cells; test: MTT cell viability assay, single agents; assay type: cell-based; settings: JNKi 0.5 μM alone; rhTRAIL 10 ng/mL alone
# Procedure: as §3
# IL-8 secretion = test: Human CXCL8/IL-8 ELISA of culture supernatant; assay type: cell-based
# Procedure: Cell culture supernatant was obtained after 24-hour treatments in triplicate. A human CXCL8/IL-8 Quantikine ELISA kit (R&D Systems) was used to measure human IL-8 according to the manufacturer's protocol. An IL-8 standard curve was performed to determine concentrations (in pg of cytokine per μL).
# DR4 and DR5 = test: qRT-PCR of TRAIL death receptors; assay type: cell-based; settings: vs control samples
# Procedure: as §2
# L3.6pl cells = test: MTT cell viability assay; assay type: cell-based; settings: compared to TRAIL alone
# Procedure: as §3
# IL-8, CXCR1, DcR1, c-Jun = test: qRT-PCR of IL-8 axis genes; assay type: cell-based; settings: IL-8 treatment
# Procedure: as §2
# MTT cell viability assay = assay type: cell-based; settings: human, low-dose 0.5 μM or 1.0 μM
# Procedure: as §3
# [5] = system: CSC-enriched pancreatic cancer spheres; test: Sphere forming assay; assay type: cell-based; settings: high-dose treatment group (control 40%)
# Procedure: Sphere-forming medium consisted of MEMα supplemented with L-glutamine, putrescine, insulin (all from Sigma-Aldrich), […] (20 ng/mL), basic fibroblast growth factor (10 ng/mL), and B-27 supplement (Gibco). For first generation, attached cells were trypsinized, washed twice with PBS, and seeded in sphere-forming medium as single cell suspensions with clonal density (5,000-10,000 cells/mL) on ultra-low-attachment plates (Corning). After 7 to 10 days, spheres were harvested by gravitation in a tube, trypsinized, washed twice with PBS, and reseeded as described above for the next higher generation. To quantify sphere-forming ability, cells were prepared as described in the preceding paragraph and seeded in 96-well ultra-low-attachment plates at 500 to 1000 cells per well. Medium was supplemented with 1% methylcellulose to prevent cell-cell attachments. Medium was added or renewed every 3 days, and spheres were quantified at day 10 to 12.
# [6] = system: adipose tissue-derived stem cells (ASCs); test: MTT proliferation assay of adipose tissue-derived stem cells; assay type: cell-based, human; settings: 10.0 μM or 20.0 μM
# Procedure: as §3
# For measurement of cell proliferation, cells were seeded into 24-well plates. After 24 hours, cells were washed with PBS, and medium with different dilutions of JNKi was added. Viable cells were then counted daily with a standard trypan blue stain protocol.
Molecule,"differentiation into osteoblasts, chondrocytes, adipocytes [1]",#tumors at 6 wks (MiaPaCa2 tumors),% tumor presence at 6 wks (MiaPaCa2 tumors) [%],Kidney mets (MiaPaCa2 tumors),Liver mets (MiaPaCa2 tumors),Peritoneal mets (MiaPaCa2 tumors),Spleen mets (MiaPaCa2 tumors),also measured
TRAIL: recombinant human TNF-related apoptosis-inducing ligand from R&D Systems,functionally unimpaired,10/10,100,0,2,1,0,"viability of spheres (L3.6pl spheres): almost entirely viable; apoptosis (L3.6pl parental cells): robust apoptosis; expression of DcR1 (DcR1): increased the expression of the decoy receptor DcR1; resistance of spheres to TRAIL-induced cell death vs parental cells [2]: significantly more resistant; p-JNK levels (p-JNK): increased p-JNK levels; cell death ([3]; TRAIL doses up to 100 ng/mL): detectable cell death only in small numbers of cells; cell viability [4]: only modest effects; TRAIL level at peak IL-8 secretion (IL-8 secretion; Panc1 cells, 24 hours): 50 ng/mL; IL-8 secretion (IL-8 secretion; TRAIL with or without JNKi): upregulates IL-8 secretion; IL-8 production (IL-8 secretion; increasing doses of TRAIL, 24 hours): increased dose-dependently; expression of DR4 and DR5 (DR4 and DR5): reduced the presence of the apoptosis receptors DR4 and DR5"
IL-8: interleukin-8 added to cells in combination with TRAIL,,,,,,,,"cell viability / apoptosis in combination with TRAIL (L3.6pl cells): neutralized the apoptosis-inducing power of TRAIL; cell viability / apoptosis in combination with TRAIL ([3]; compared to TRAIL alone): neutralized the apoptosis-inducing power of TRAIL; DcR1 expression (IL-8, CXCR1, DcR1, c-Jun): upregulation of the decoy receptor DcR1; IL-8 and CXCR1 expression (IL-8, CXCR1, DcR1, c-Jun): autostimulated IL-8 and CXCR1 expression"
"Oc1c2ccccc2c2c3c(cccc13)N=N2 [JNKi, SP600125]",functionally unimpaired,4/4,100,0,1,0,1,"viability at 24 h (MTT cell viability assay; L3.6pl cells, 24 hours): 80%; viability at 24 h (MTT cell viability assay; MiaPaCa2 cells): 80%; spheres bigger than 150 μm in diameter [5]: 0%; cell proliferative capacity, lower compared to untreated ASCs [6]: 20%"
"Nc1ccn([C@@H]2O[C@H](CO)[C@@H](O)C2(F)F)c(=O)n1 [GEM, Gemcitabine]",,5/5,100,0,1,1,3,
